Experimental data: patent EP1613294B1, “PEPTIDES AND DERIVATIVES THEREOF AS INHIBITORS OF OXIDATIVE DAMAGE OF THE SKIN” (Bottega Verde S.r.l., priority 2003, dated 2004)
Peptide text beside a SMILES is read from it.

How the values were obtained:
[1] = Antioxidant activity, fluorimetric assay of R-Phicoerytrine (RPE) oxidation by AAPH-generated peroxyl radicals; assay type: biochemical; details: substance at 25 µM; average ± S.D of 4 determination
Procedure: The amount of RPE oxidation is determined by fluorimetric analysis and the results are expressed as Trolox equivalents (reference compound).
(the hydrophilic analogue of vitamin E).
The values are the average ± S.D of 4 determination

[2] = system: keratinocytes (NCTC 2544 human cell line); assay: Cytoprotection of keratinocytes exposed to UVB and HNE (morphology, cell viability by calcein assay); assay type: cell-based; details: for protective effect (morphological analyses and recovery in cell viability): added to incubation medium concomitant to HNE and UVB exposure, result in words
Procedure: The experimental model involves the exposure of the cellular mono-layer to the minimal UVB erythematal dose, MED=50 mJ/cm^2, (Vilber Lourmat VLX-3W radiometer equipped with a UVB probe at 312 nm)and, 4 hours of post-incubation, to the HNE insult (70 nmoles/mg protein).
The combination of physical (UVB) and chemical (HNE) stress is used to simulate the conditions of cellular damage of the skin during the cutaneous intrinsic and photo-induced aging process.

[3] = Copper (II) chelation by spectrophotometric analysis; assay type: physicochemical; details: phosphate buffer (1 mM), 37°C, 1 mM copper sulphate (1:1 molar ratio); free copper (II) band at 800 nm disappears
Procedure: For this purpose, first we evaluated the ability of H-His-Tyr-OH and H-Tyr-His-OH to chelate copper (II) by spectro-photometric analysis. The peptides are dissolved in phosphate buffer (1 mM) and incubated at 37°C with 1 mM copper sulphate (1:1 molar ratio).

[4] = HNE quenching activity in homogeneous phase (HNE consumption by HPLC); assay type: biochemical; details: 200 µM HNE, 37°C, average ± S.D of 4 determinations; for RESIDUAL HNE (%) 1 hr of incubation: phosphate buffer 10 mM pH 7.4, 1 hr; for RESIDUAL HNE (%) 24 hrs of incubation: phosphate buffer 10 mM pH 7.4, 24 hrs
From the text: 4-hydroxy-trans-nonenal (HNE) was used throughout the study, as the prototype of α,β-unsaturated aldehydes since it represents the main oxidative degradation product of ω-6 polyunsaturated fatty acids, such as arachidonic and linoleic acids, and it is formed in large amount in the skin under different patho-physiological conditions, such as intrinsic and photo-induced skin aging [Tanaka N, Arch Dermatol Res, 293, 363-367, 2001].
A homogeneous phase model was first used to evaluate the ability of H-His-Tyr-OH and H-Tyr-His-OH to react and deactivate the cytotoxic agent HNE (quenching activity). In particular, the di-peptides were incubated at 37°C in a phosphate buffer, 10 mM pH 7.4, in the presence of 200 µM HNE. HNE consumption was determined after 1 hour and 24 hours of incubation by HPLC analysis, under the following experimental conditions: HP1050 (Hewlett Packard, Milano, Italy) equipped with a quaternary pump, self-sampling, on-line degasser, UV/VIS photodiode detector. The separations were performed by means of a Supelco LC18 column (25 cm x 4.6 mm i.d.; particle size 5 µm) and an isocratic elution system: 60% of phase A (H2O/CH3CN/HCOOH 90/1.0/0.] v/v/v) and 40% of phase B (H2O/CH3CN 10/90 v/v/v).
The values are expressed as the average ± S.D of 4 determinations.

[5] = system: human kcratinocytcs cell line (NCTC 2544 human cell line); assay: Antioxidant cell protection of keratinocytes against AAPH-induced oxidative damage (MTT, morphology, lipid peroxidation with BODIPY 581/591); assay type: cell-based; details: 6 hours exposure to 40 mM AAPH
Procedure: The H-His-Tyr-OH and H-Tyr-His-OH antioxidant activity was subsequently devaluated in a cellular model using human kcratinocytcs cell line (NCTC 2544 human cell line, Flow Laboratories, Irvine, UK), subjected to oxidative damage induced by a flux of peroxyl radicals generated by the radical initiator 2,2'-azobis([…]) dihydrochloride (AAPH). The following parameters were evaluated as markers of cellular damage: mitochondrial functionality as an index of cell viability (MTT assay), cellular morphology (phase contrast microscopic examinations), and lipid peroxidation, using 4,4-difluoro-5-(4-phenyl-1,3-butadienyl)-4-bora-3a,4a-diazo-s-indacene-3-undecanoic acid(BODIPY 581/591) as membrane fluorescent probe [Pap et al, FEBS Lett. 453:278-282, 1999]. A dramatic cytotoxic effect was observed after 6 hours exposure to 40 mM AAPH(fig.5).
The addition of H-His-Tyr-OH to the incubation medium causes a significant and dose-dependent cell protection, which is significant for all the parameters considered, already at 0.5 mM, with a total protection at 10 mM (fig. 5).

## Cc1c(C)c2c(c(C)c1O)CCC(C)(C(=O)O)O2 (stereo not drawn) [Trolox, reference compound]
[1]
  TROLOX equivalent: 25 µM

## NC(Cc1ccc(O)cc1)C(=O)NC(Cc1cnc[nH]1)C(=O)O (stereo not drawn) [H-Tyr-His-OH] (H-Tyr-His-OH; configuration not given here)
[2]
  protective effect (morphological analyses and recovery in cell viability): dose-dependent protective effect
[1]
  TROLOX equivalent: 17.28 ± 0.89 µM
[3]
  λmax of the absorption band of the peptide-copper(II) complex: 600 nm
[4]
  RESIDUAL HNE (%) 1 hr of incubation: 85.31 ± 6.29%
  RESIDUAL HNE (%) 24 hrs of incubation: 20.02 ± 4.09%

## NCCC(=O)N[C@@H](Cc1cnc[nH]1)C(=O)O [Carnosine, reference compound]
[1]
  TROLOX equivalent: 4.94 ± 0.3 µM

## NC(Cc1cnc[nH]1)C(=O)NC(Cc1ccc(O)cc1)C(=O)O (stereo not drawn) [H-His-Tyr-OH] (H-His-Tyr-OH; configuration not given here)
[5]; mitochondrial functionality, morphology, lipid peroxidation, read-out: concentration at which cell protection is already significant for all the parameters considered
  minimal effective concentration: 500 µM
[5]; read-out: concentration giving total protection
  EC100: 10000 µM
[2]; Homo sapiens, NCTC-2544, light or radiation study, UVB 50 mJ/cm^2 + HNE 70 nmoles/mg protein, determined 6 hours after the addition of HNE, read-out: concentration at which cells are completely protected (morphological analysis)
  EC100: 20000 µM
[2]; Homo sapiens, NCTC-2544, light or radiation study, UVB 50 mJ/cm^2 + HNE 70 nmoles/mg protein, determined 6 hours after the addition of HNE, read-out: concentration at which the cytoprotective activity is already significant
  minimal effective concentration: 2000 µM
[2]
  protective effect (morphological analyses and recovery in cell viability): dose-dependent protective effect
[1]
  TROLOX equivalent: 16.90 ± 0.54 µM
[3]
  λmax of the absorption band of the peptide-copper(II) complex: 650 nm
[4]
  RESIDUAL HNE (%) 1 hr of incubation: 80.16 ± 7.57%
  RESIDUAL HNE (%) 24 hrs of incubation: 15.41 ± 0.49%

## N=C(N)NN [Amino guanidine, reference compound]
[4]
  RESIDUAL HNE (%) 1 hr of incubation: 95.31 ± 0.08%
  RESIDUAL HNE (%) 24 hrs of incubation: 72.04 ± 3.97%
